Measured values from paper PMC2834284 (Journal of medicinal chemistry, 2010).
Converted amounts (≈) assume the structure as drawn. “Also recorded” adds a separate entry of the source.

Assays:
rat neonatal microglia = assay: Microglia LDH release; assay type: cell-based; conditions: for cytotoxicity (lactate dehydrogenase release) at highest concentration tested: 10 μM; for LDH LDH50: concentration causing 50% of maximal LDH release triggered by 0.1% Triton X-100
[1] = tested on: Plasmodium falciparum (W2 clone); assay: In vitro antimalarial assay; assay type: cell-based; conditions: W2, 72 h, read-out: P. falciparum (W2 clone) IC50
[2] = tested on: Plasmodium falciparum (D6 clone); assay: In vitro antimalarial assay; assay type: cell-based; conditions: for IC50: Plasmodium falciparum, D6, 72 h, read-out: P. falciparum (D6 clone) IC50
[3] = tested on: Plasmodium berghei infected mice; assay: In vivo antimalarial assay, multiple oral dose; conditions: 3×5 mg/Kg
[4] = tested on: mice inoculated with P. berghei; assay: Initial in vivo evaluation; conditions: 3×10 mg/kg P.O.
[5] = tested on: Cryptococcus neoformans ATCC 90113; assay: In vitro antimicrobial assay, C. neoformans; assay type: cell-based; conditions: ATCC90113, read-out: C. neoformans IC50
[6] = tested on: Candida albicans ATCC 90028; assay: In vitro antimicrobial assay, C. albicans; assay type: cell-based; conditions: ATCC90028, read-out: C. albicans IC50
[7] = tested on: Mycobacterium intracellulare ATCC 23068; assay: In vitro antimicrobial assay, M. intracellulare; assay type: cell-based; conditions: ATCC23068, read-out: M. intracellulare IC50
CDK-5 = conditions: panel of CDK-1, PKA, CDK-5, MAPK, GSK-3α; cited from earlier work
[8] = Stability in aqueous solution; assay type: physicochemical; conditions: over twenty-four months, exposure to light, room temperature, 0.05 N HCl aqueous solution (20 mg/mL)
[9] = tested on: Plasmodium berghei infected mice; assay: In vivo antimalarial assay, oral single dose
[10] = tested on: Mycobacterium tuberculosis; conditions: cited from earlier work
GSK-3β = conditions: panel of CDK-1, PKA, CDK-5, MAPK, GSK-3α; cited from earlier work
[11] = tested on: mice infected with malarial parasites; assay: In vivo antimalarial assay, intraperitoneal administration; conditions: for toxicity / adverse reactions: i.p. 10×3 mg/kg in infected mice; for Cure (number of mice without parasitemia through day 28 post infection): of 5 mice
in vitro = conditions: dog, MDCK-MDR1, pH 7.4
[12] = tested on: methicillin-resistant Staphylococcus aureus; conditions: cited from earlier work
M. tuberculosis (H37Rv) = assay: In vitro activity against M. tuberculosis; assay type: cell-based; conditions: Mycobacterium tuberculosis, read-out: M. tuberculosis (H37Rv) MIC
Staphylococcus aureus = conditions: cited from earlier work
[13] = tested on: malarial parasites in mice; conditions: oral administration 2×100 μmol/Kg; cited from earlier work
Vero cells = conditions: African green monkey
[14] = i.p. 10×3 mg/kg, mean parasitemia in control group as 100%

## CCCCn1c2ccccc2c2ccnc(C3=C[C@@]4(O)CC/C=C\CCCCN5CC[C@@H]3[C@]3(C[C@@H]6/C=C\CCCCN6[C@H]34)C5)c21 [Compound 6d, 9N-butylmanzamine A]
Rat neonatal microglia
  cytotoxicity (lactate dehydrogenase release) at highest concentration tested: minimal cytotoxicity; also recorded: no toxicity
  LDH LDH50: >10 µM

## CCN(CC)CCCC(C)Nc1ccnc2cc(Cl)ccc12 (centres unmarked) [Chloroquine]
[1]
  IC50: 0.155 µg/mL (≈ 0.485 µM)
[2]
  IC50: 0.016 µg/mL (≈ 0.05 µM)
[3]
  MST Days: > 30 days
[3]; day 5 post infection vs untreated controls
  Inhibition of Parasitemia (%): 88%
[3]; day 7 post infection
  Average % Parasitemia: 4.5%
[3]; day 10 post infection
  Average % Parasitemia: 7.8%
[3]; day 14 post infection
  Average % Parasitemia: 13.5%
[3]; day 21 post infection
  Average % Parasitemia: 21.7%
[3]; day 28 post infection
  Average % Parasitemia: 39.3%
[4]
  mean survival time: 14.3 days

## CC(C)(C)Cn1c2ccccc2c2ccnc(C3=C[C@@]4(O)CC/C=C\CCCCN5CC[C@@H]3[C@]3(C[C@@H]6/C=C\CCCCN6[C@H]34)C5)c21 [Compound 6g, 9N-neopentylmanzamine A]
Rat neonatal microglia
  cytotoxicity (lactate dehydrogenase release) at highest concentration tested: minimal cytotoxicity; also recorded: no toxicity
  LDH LDH50: >10 µM

## O[C@]12C=C(c3nccc4c3[nH]c3ccccc34)[C@@H]3CCN(CCCC/C=C\CC1)C[C@@]31C[C@@H]3CCCCCCN3[C@H]12 [Compound 5, Dihydromanzamine A]
[2]
  IC50: 0.2 µg/mL (≈ 0.363 µM)

## CC(=O)Oc1cccc2c1[nH]c1c(C3=C[C@@]4(O)CC/C=C\CCCCN5CC[C@@H]3[C@]3(C[C@@H]6/C=C\CCCCN6[C@H]34)C5)nccc12 [Compound 9, 8-Acetoxymanzamine A]
[5]
  IC50: 1.5 µg/mL (≈ 2.47 µM)
[6]
  IC50: 1.5 µg/mL (≈ 2.47 µM)
[7]
  IC50: 0.1 µg/mL (≈ 0.165 µM)

## O=C(O)c1cn(C2CC2)c2cc(N3CCNCC3)c(F)cc2c1=O [Ciprofloxacin, reference compound]
[7]
  IC50: 0.3 µg/mL (≈ 0.905 µM)

## Oc1cccc2c1[nH]c1c(C3=C[C@@]4(O)CC/C=C\CCCCN5CC[C@@H]3[C@]3(C[C@@H]6CC[C@H](O)CCCN6[C@H]34)C5)nccc12 [Compound 16, 31β-Hydroxymanzamine F]
[2]; chloroquine sensitive D6 clone, 72 h
  P. falciparum (D6 clone) IC50: did not improve the antimalarial activity

## C[C@@H]1CC[C@H]2[C@@H](C)C(=O)O[C@@H]3O[C@@]4(C)CC[C@@H]1[C@]32OO4 [Artemisinin, reference compound]
[1]
  IC50: 0.008 µg/mL (≈ 0.0283 µM)

## COc1ccc2[nH]c3c(C4=C[C@@]5(O)CC/C=C\CCCCN6CC[C@@H]4[C@]4(C[C@@H]7/C=C\CCCCN7[C@H]45)C6)nccc3c2c1 [Compound 21a, 6-Methoxymanzamine A]
Rat neonatal microglia
  cytotoxicity (lactate dehydrogenase release) at highest concentration tested: minimal cytotoxicity; also recorded: no toxicity
  LDH LDH50: >10 µM

## O[C@]12C=C(c3nccc4c3[nH]c3ccccc34)[C@@H]3CCN(CCCC/C=C\CC1)C[C@@]31C[C@@H]3/C=C\CCCCN3[C@H]12 [Compound 1, manzamine A]
CDK-5
  inhibition of CDK-5: specifically inhibited
[5]
  IC50: 1.5 µg/mL (≈ 2.73 µM)
Rat neonatal microglia
  cytotoxicity (lactate dehydrogenase release) at highest concentration tested: minimal cytotoxicity
  LDH LDH50: >10 µM
[6]
  IC50: 2 µg/mL (≈ 3.64 µM)
[8]
  stability (decomposition) in aqueous solution: No significant decomposition
[9]; single oral dose 100 mg/kg
  behavioral signs of toxicity: did not show any behavioral signs of toxicity
[9]; single oral dose 200 or 300 mg/kg
  signs of toxicity: began to exhibit signs of toxicity beyond weight loss
[1]
  IC50: 0.008 µg/mL (≈ 0.0146 µM)
[2]
  IC50: 0.0045 µg/mL (≈ 0.0082 µM)
[10]
  inhibition of Mycobacterium tuberculosis: 98-99%
GSK-3β
  inhibition of GSK-3β: specifically inhibited
[11]; i.p. 10×3 mg/kg
  Survival (number of animal survived day 28/total animal in group): 0/5
  Cure (number of mice without parasitemia through day 28 post infection): 0/5
[11]
  toxicity / adverse reactions: toxic
[11]; [14]
  %parasitemia suppression Day 5: 100%
[7]
  IC50: 0.35 µg/mL (≈ 0.638 µM)
In vitro
  efflux ratio at 2 h, 50 μM: < 1
[12]
  IC50 against methicillin-resistant Staphylococcus aureus: 0.7 µg/mL (≈ 1.28 µM)
M. tuberculosis (H37Rv)
  MIC: 1.5 µg/mL (≈ 2.73 µM)
Staphylococcus aureus
  IC50 against Staphylococcus aureus: 0.5 µg/mL (≈ 0.911 µM)
[13]
  reduction in parasitemia: 90%

## CC(C)CCn1c2ccccc2c2ccnc(C3=C[C@@]4(O)CC/C=C\CCCCN5CC[C@@H]3[C@]3(C[C@@H]6/C=C\CCCCN6[C@H]34)C5)c21 [Compound 6f, 9N-isopentylmanzamine A]
Rat neonatal microglia
  LDH LDH50: >10 µM

## CC[C@@]1(O)CCCN2[C@@H](CC1)C[C@]13CN4CCCC/C=C\CC[C@](O)(C=C(c5nccc6c5[nH]c5c(O)cccc56)[C@@H]1CC4)[C@H]23 [Compound 18, 31-Ethylmanzamine F]
[1]
  IC50: 0.086 µg/mL (≈ 0.141 µM)
Vero cells
  no toxicity against Vero cells at the highest tested concentration: > 4.6 µg/mL

## N/N=C1/CCCN2[C@@H](CC1)C[C@]13CN4CCCC/C=C\CC[C@](O)(C=C(c5nccc6c5[nH]c5c(O)cccc56)[C@@H]1CC4)[C@H]23 [Compound 15, Manzamine F-31-hydrazone]
[2]
  IC50: 0.029 µg/mL (≈ 0.0488 µM)
Vero cells
  no toxicity against Vero cells at the highest tested concentration: > 4.6 µg/mL

## O=C1CCCN2[C@@H](CC1)C[C@]13CN4CCCC/C=C\CC[C@](O)(C=C(c5nccc6c5[nH]c5c(O)cccc56)C1CC4)[C@H]23 (some centres unmarked) [Compound 14, manzamine F]
[5]
  IC50: 6.5 µg/mL (≈ 11.2 µM)
[2]
  IC50: 0.78 µg/mL (≈ 1.34 µM)

## O[C@]12C=C(c3nccc4c3[nH]c3ccccc34)[C@@H]3CCN(CCCCCCCC1)C[C@@]31C[C@@H]3CCCCCCN3[C@H]12 [Compound 3, 15,16,32,33-tetrahydromanzamine A]
[2]
  IC50: 0.082 µg/mL (≈ 0.148 µM)

## [O-][N+]12CCCC/C=C\CC[C@]3(O)C=C(c4nccc5c4[nH]c4ccccc45)[C@H](CC1)[C@]1(C[C@@H]4/C=C\CCCC[N@+]4([O-])[C@H]13)C2 [Compound 13, 21, 27-N-oxamanzamine A]
[1]
  IC50: 0.067 µg/mL (≈ 0.115 µM)
[2]
  IC50: 0.017 µg/mL (≈ 0.0293 µM)

## C[C@@H]1[C@H](O)[C@@H](C)/C=C/C=C/C=C/C=C/C=C/C=C/C=C/[C@H](O[C@@H]2O[C@H](C)[C@@H](O)[C@H](N)[C@@H]2O)C[C@@H]2O[C@](O)(C[C@@H](O)C[C@@H](O)[C@H](O)CC[C@@H](O)C[C@@H](O)CC(=O)O[C@H]1C)C[C@H](O)[C@H]2C(=O)O [Amphotericin B, reference compound]
[5]
  IC50: 0.75 µg/mL (≈ 0.812 µM)

## Oc1cccc2c1[nH]c1c(C3=C[C@@]4(O)CC/C=C\CCCCN5CC[C@@H]3[C@]3(CC6/C=C\CCCCN6[C@H]34)C5)nccc12 (some centres unmarked) [Compound 2, 8-hydroxymanzamine A]
[5]
  IC50: 2 µg/mL (≈ 3.54 µM)
[6]
  IC50: 3.5 µg/mL (≈ 6.2 µM)
[1]
  IC50: 0.008 µg/mL (≈ 0.0142 µM)
[2]
  IC50: 0.006 µg/mL (≈ 0.0106 µM)
[10]
  inhibition of Mycobacterium tuberculosis: 98-99%
[11]; i.p. 10×3 mg/kg
  Survival (number of animal survived day 28/total animal in group): 5/5
  Cure (number of mice without parasitemia through day 28 post infection): 4/5
[11]
  toxicity / adverse reactions: mild reversible weight loss
[11]; i.p. 10×3 mg/kg, * death related to toxicity
  MST (mean survival time): > 28 days
[11]; [14]
  %parasitemia suppression Day 5: 100%
  %parasitemia suppression Day 7: 100%
[7]
  IC50: 0.1 µg/mL (≈ 0.177 µM)
[13]
  reduction in parasitemia: 90%

## COC(=O)c1cc2c([nH]c3ccccc32)c(C2=C[C@@]3(O)CC/C=C\CCCCN4CC[C@@H]2[C@]2(C[C@@H]5/C=C\CCCCN5[C@H]23)C4)n1 [Compound 21b, Methyl manzamine A-3-carboxylate]
Rat neonatal microglia
  cytotoxicity (lactate dehydrogenase release) at highest concentration tested: minimal cytotoxicity; also recorded: no toxicity
  LDH LDH50: >10 µM
